# Source: patent US10500178B2, “LTB4 inhibition to prevent and treat human lymphedema” (The Board of Trustees of the Leland Stanford Junior …, priority 2015, dated 2019)
# Experiments:
# Notch signaling = Notch signaling in mouse lymphedema (NICD, Hey1, EphrinB2); type: in vivo; conditions: WT mice
# Experimental: (§1) All small molecule drugs were administered through daily intraperitoneal injection.
# Western Blot HLECs were lysed with RIPA buffer containing protease and phosphatase inhibitors. Lysates were sonicated briefly and centrifuged. The supernatant was collected and protein concentration was determined by BCA assay. 60 µg of protein were resolved on a 10% SDS-PAGE gel, transferred to a nitrocellulose membrane, blocked with 5% milk and probed with one of the following antibodies: anti-Sphk1 (3297,Cell Signaling); antip-Sphk1(SP1641, ECM Biosciences); anti-NICD (ab8925,Abcam), anti-VEGFR3 (AF743,R&D); anti-DLL4 (ab7280, Abcam). Actin was used to normalize the total protein. […] Images were acquired by Zeiss 710 confocal microscopy and analyzed using ImageJ software.
# Quantitative RT-PCR. Quantitative PCR (qRT-PCR) was performed using FastStart SYBR Green (Roche) on a Lightcycler 480. mRNA expression relative to GAPDH mRNA levels were calculated using the delta-delta threshold cycle (ΔΔCT) method. […]
# [1] = system: acquired lymphedema surgically induced in the tails of female C57BL/6J mice; experiment: mouse-tail model of acquired lymphedema (tail volume, histology); type: in vivo
# Experimental: Surgical induction of experimental lymphatic vascular insufficiency. […] Briefly, a full-thickness circumferential incision of the skin was made 16 mm distal to the base of the mouse tail under anesthesia. Lymphatic trunks were ablated through controlled, limited cautery application under the surgical microscope. For surgical controls (sham animals), the skin incision alone was performed without lymphatic cautery.
# as §1
# Tail volume quantitation. Tail-volume measurements at each designated time were quantified by observers blinded to the treatment status of the subjects. Tail volumes were calculated through a digital photographic technique pre-operatively, and post-operatively (d3, d9, d14, d20, and d24), using an Olympus D520 Zoom digital camera at SHQ resolution at a fixed distance from the subject (37 cm), as previously described. Tail volumes were derived from the measurement of the tail diameter using the truncated cone approximation. Microlymphangiography was performed by injecting FITC-dextran (size: 2000 kDa) subcutaneously into mouse tails on post-surgery d24. Images were taken 20 minutes after injection.
# Viral particles were mixed with Lipofectamine 2,000 (5% final vol/vol, Invitrogen) before injection, to increase transduction efficiency. qRT-PCR, immunofluorescence and fluorescence in situ hybridization were used to evaluate the silencing efficiency in the mouse tail skin 24d after surgery.
# LTB4 = experiment: serum LTB4 levels in lymphedema mice; type: in vivo, mouse; conditions: therapies initiated on d3, assessed on d24
# Experimental: as §1
# Quantification of LTB4, PGE2 and S1P with LC-MS/MS. Briefly, LTB4, PGE2 and S1P were separated from serum with an ACE reverse phase C18 HPLC column. Formic acid 0.5% in 5 mM NH4Ac (A) and formic acid 0.5% in acetonitrile/water (9/1) (B) were used as the mobile phase. […] The internal standard of this method was Carbutamide. The quantification limit was 1 ng/ml. The calibration range was 1-2000 ng/ml.
# S1P, S1pr1, Sphk1, eNOS = experiment: S1P signaling in mouse lymphedema; type: in vivo; conditions: therapy initiated 3d after surgery
# Experimental: as §1
# Quantification of LTB4, PGE2 and S1P with LC-MS/MS. Briefly, LTB4, PGE2 and S1P were separated from serum with an ACE reverse phase C18 HPLC column. Formic acid 0.5% in 5 mM NH4Ac (A) and formic acid 0.5% in acetonitrile/water (9/1) (B) were used as the mobile phase. Lipids were detected with positive multiple reaction monitor (MRM) scanning at 335.16/194.80 m/z for LTB4, 351.20/189.50 m/z for PGE2 and 330.20/264.40 m/z for S1P using a Sciex API-4000 MS/MS combined with a Shimazu 20A HPLC system. The internal standard of this method was Carbutamide. The quantification limit was 1 ng/ml. The calibration range was 1-2000 ng/ml. The accuracy of the standards and control samples ranged from 88.7% to 120%.
compound,measurement,setting,value
"CC(C)C[C@H](NC(=O)[C@@H](O)[C@H](N)Cc1ccccc1)C(=O)O [bestatin, (2S)-2-[[(2S,3R)-3-amino-2-hydroxy-4-phenylbutanoyl]amino]-4-methylpentanoic acid]",Hey1 and EphrinB2 expression in diseased lymphatics,Notch signaling,normalized
same,NICD nuclear accumulation in mouse lymphedema,Notch signaling,restored
same,benefit of LTB4 antagonism administered prior to surgery,"[1]; therapies administered prior to sham and lymphedema surgery (bestatin, Ly293111 from d0, shLtb4r1 on d(−7))",not beneficial
same,amelioration of lymphedema (serial tail-volume measurements over 24d),[1]; therapies started on post-surgery d3 (late LTB4 antagonism),demonstrated therapeutic amelioration of lymphedema
same,reversal of more established disease by delayed dosing,[1]; therapy initiated 9d or 14d post-surgically,effective
same,serum LTB4 levels,LTB4,effectively reduced
same,S1P and S1pr1 levels,"S1P, S1pr1, Sphk1, eNOS",restored
same,Sphk1 and eNOS expression,"S1P, S1pr1, Sphk1, eNOS",normalized
